The subject of one assay is A498. Put plainly: CellTiter-Blue cell viability assay, A498 cell line. The format is cell-based. The following applies: Homo sapiens, 72 hour treatment, concentration that inhibits cell growth by 50 percent of control. The procedure: (§1) Cell viability in the presence of varying concentrations of the above listed compounds at different time points was used to assess cytotoxicity and the effect of the compounds on cell proliferation.
(§2) Cell viability was measured by the CellTiter-Blue® cell viability assay Promega (Madison, Wis.). This procedure measures the conversion of the indicator dye (resazurin) to resorufin, an indicator of cell viability. Following treatment, growth media was removed and cells were incubated with 20 μl of CellTiter-Blue® Reagent and growth media for 1-4 hours at 37° C. Fluorescence values were measured at 535/590 nm using a Beckman-Coulter DTX-880 microplate reader.
(§3) Cells were grown to 70% confluency, trypsinized, counted, and seeded in 96 well flat-bottom plates at a final concentration of 2.5×10^3-5×10^3 cells/well (Day 0). Cells were allowed to incubate in growth media for 24 hours to allow for maximum adhesion. Treatment with the test agents or standard agents began on Day 1 and continued for 72 hours. At the 72 hour timepoint, treatment containing media was removed. Viable cell numbers were quantified by the CellTiter-Blue® cell viability assay as described above. Experiments were repeated at least twice with the same concentrations to determine growth inhibitory activity. Results from these studies were used to calculate an IC50 value (concentration of drug that inhibits cell growth by 50 percent of control) for each compound.
(§4) For single agent and combination studies, data from each experiment were collected and expressed as % Cell Growth using the following calculation: % Cell Growth=(ftest/fvehicle)×100 where ftest is the fluorescence of the tested sample, and fvehicle is the fluorescence of the vehicle in which the drug is dissolved. Dose response graphs and IC50 values were generated using Prism 4 software (GraphPad) using the following equation: Y=(Top−Bottom)/(1+10^((log IC50−X)[…])) where X is the logarithm of concentration and Y is the response. Y starts at the Bottom and goes to Top with a sigmoid shape.
On the technique in general: Alamar Blue is a resazurin reagent that responds to reducing activity.

Another assay has as its system AN3CA. Put plainly: CellTiter-Blue cell viability assay, AN3CA cell line. The following applies: Homo sapiens, AN3-CA, 72 hour treatment, concentration that inhibits cell growth by 50 percent of control. The format is cell-based. The procedure: as §1, §2, §3, §4

For orientation: IC50 means the point on the concentration scale where inhibition reaches its midpoint. With `Cc1ccc(C(C)C)cc1-c1cc(C(F)(F)F)nn1-c1ccc(S(N)(=O)=O)cc1` [Compound 4], the IC50 in the assay on A498 came out at 1.1 µM; in the assay on AN3CA, 0.83 µM.
On the same counts, the results for `Cc1ccc(Br)c(-c2cc(C(F)(F)F)nn2-c2ccc(S(N)(=O)=O)cc2)c1` [Compound 6] are 6.9 µM and 1.5 µM.
With `COc1ccc(C(C)C)cc1-c1cc(C(F)(F)F)nn1-c1ccc(S(N)(=O)=O)cc1` [Compound 7], the IC50 in the assay with A498 was 12 µM; in the assay with AN3CA, 5.8 µM.
For the compound `NS(=O)(=O)c1ccc(-n2nc(C(F)(F)F)cc2-c2cc(-c3ccncc3)ccc2F)cc1` [Compound 20], in the assay on AN3CA, the IC50 was 3 µM.
Still for that read-out and setting: the figure for `Cc1cc(-c2ccncc2)cc(-c2cc(C(F)(F)F)nn2-c2ccc(S(N)(=O)=O)cc2)c1` [Compound 22] is 1.2 µM.
Turning to `NS(=O)(=O)c1ccc(-n2nc(C(F)(F)F)cc2-c2cccc(-c3ccn[nH]3)c2)cc1` [Compound 34], the values for the IC50 in the assay on A498 and with AN3CA were 12 µM and 2.1 µM, respectively.
As for `CN(C)c1ccc(-c2ccn[nH]2)cc1-c1cc(C(F)(F)F)nn1-c1ccc(S(N)(=O)=O)cc1` [Compound 36], the 50% inhibitory concentration (IC50) in the assay on AN3CA turned out to be 9.1 µM.
As for `Cc1ccc(-c2cccnc2)cc1-c1cc(C(F)(F)F)nn1-c1ccc(S(N)(=O)=O)cc1` [Compound 46], the IC50 in the assay with A498 is 10 µM; in the assay with AN3CA, 9.1 µM.
As to `Cc1ccc(-c2ccn[nH]2)cc1-c1cc(C2CC2)nn1-c1ccc(S(N)(=O)=O)cc1` [Compound 73], the IC50 in the assay on A498 worked out at 7.9 µM; in the assay with AN3CA, 3.3 µM.
Regarding `Cc1cc(-c2cc(C3CC3)nn2-c2ccc(C(=O)NO)cc2)ccc1Cl` [Compound 76], the IC50 with AN3CA stood at 9 µM.
With `Cc1ccc(Br)cc1-c1cc(C(F)(F)F)nn1-c1ccc(S(N)(=O)=O)cc1` [Example 1], the IC50 with A498 stood at 11 µM; in the assay on AN3CA, 7.6 µM.
On the same counts, the results for `CN(C)c1ccc(Br)cc1-c1cc(C(F)(F)F)nn1-c1ccc(S(N)(=O)=O)cc1` [Example 2] are 1.2 µM and 0.6 µM.
For `Cc1ccc(-c2ccncc2)cc1-c1cc(C(F)(F)F)nn1-c1ccc(S(N)(=O)=O)cc1` [Example 11] the same measures were 8.9 µM and 0.01 µM.
With `Cc1ccc(-c2ccn[nH]2)cc1-c1cc(C(F)(F)F)nn1-c1ccc(S(N)(=O)=O)cc1` [Example 12], the IC50 is 14 µM in the assay with A498 and 0.04 µM in the assay on AN3CA.

These data come from patent US10584119B2, “Pyrazole compounds and methods of use thereof” (TRANSLATIONAL DRUG DEVELOPMENT, LLC, priority 2013, dated 2020).
